Test results: patent US20230303598A1, “BIOINSPIRED LIPID DERIVATIVES AND USES THEREOF” (Ohio State Innovation Foundation, priority 2020, published 2023)

Test system: Hep3b cells
Assay: in vitro mRNA delivery screening of ionizable lipid LNPs with mRNA encoding firefly luciferase
Format: cell-based
Conditions: LNPs of compound/DOPE/cholesterol/PEG-lipid at ratios 20:30:40:0.75, 40:30:40:0.75 and 60:30:40:0.75, Hep3b cells (FIGS. 1-3)
Description: FIG. 1 illustrates the results of in vitro mRNA delivery screening of ionizable lipids in Hep3b cells at a ratio of 20:30:40:0.75 (compound/DOPE/cholesterol/PEG-lipid).
FIG. 2 illustrates the results of in vitro mRNA delivery screening of ionizable lipids in Hep3b cells at a ratio of 40:30:40:0.75 (compound/DOPE/cholesterol/PEG-lipid).
FIG. 3 illustrates the results of in vitro mRNA delivery screening of ionizable lipids in Hep3b cells at a ratio of 60:30:40:0.75 (compound/DOPE/cholesterol/PEG-lipid).
Phosphates and phosporamide lipid-like compounds First, forty ionizable lipids were synthesized. Then, these ionizable lipids were formulated with DOPE/cholesterol/PEG-lipid at three different ratios (20:30:40:0.75, 40:30:40:0.75, and 60:30:40:0.75) to prepare lipid nanoparticles (LNPs) and screened in Hep3b cells using mRNA-encoding firefly luciferase.

## CCCCCCCC/C=C\CCCCCCCCOP(=O)(OCCCCCCCC/C=C\CCCCCCCC)OCCN(C)C [ZYB20200113-1]
  mRNA delivery effectiveness: more effective for mRNA delivery than other ionizable lipids
